Source: ChEMBL document CHEMBL1201862, “PubChem BioAssay data set” (2004)
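Grown in 96-well plates, cells were treated for 48 hours with each compound at five concentrations. Insufficient inhibition: endpoint recorded as highest concentration tested. GI50 marks 50% less growth.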 Active and inactive are the calls of the source. Cut-off read from the data, not from the text of the source: active = GI50 up to about 1.1 µM and inactive = higher.

Columns and labels:
Assay in all cases: NCI anticancer screen, dose series, 48 h
A498 = tested on: A498
A549 = tested on: A549
ACHN = tested on: ACHN
BT-549 = tested on: BT-549
COLO 205 = tested on: COLO 205
HCT-15 = tested on: HCT-15
HOP-62 = tested on: HOP-62
Hs-578T = tested on: Hs-578T
IGROV-1 = tested on: IGROV-1
LOX IMVI = tested on: LOX IMVI
MDA-MB-231 = tested on: MDA-MB-231
MDA-N = tested on: MDA-N
NCI-H522 = tested on: NCI-H522
OVCAR-3 = tested on: OVCAR-3
OVCAR-5 = tested on: OVCAR-5
RPMI-8226 = tested on: RPMI-8226
SF-539 = tested on: SF-539
SW-620 = tested on: SW-620
U-251 = tested on: U-251
UO-31 = tested on: UO-31

| SMILES | GI50 (A498) | GI50 (A549) | GI50 (ACHN) | GI50 (BT-549) | GI50 (COLO 205) | GI50 (HCT-15) [µM] | GI50 (HOP-62) | GI50 (Hs-578T) | GI50 (IGROV-1) | GI50 (LOX IMVI) | GI50 (MDA-MB-231) | GI50 (MDA-N) | GI50 (NCI-H522) | GI50 (OVCAR-3) | GI50 (OVCAR-5) | GI50 (RPMI-8226) | GI50 (SF-539) | GI50 (SW-620) | GI50 (U-251) | GI50 (UO-31) |
| --- | --- | --- | --- | --- | --- | --- | --- | --- | --- | --- | --- | --- | --- | --- | --- | --- | --- | --- | --- | --- |
| COc1ccc(SC(C)(SC)c2ccccn2)c(OC)n1 (stereo not given) | 53.3 µM (inactive) | 79.4 µM (inactive) | > 100 µM (inactive) | 64.9 µM (inactive) | 31.6 µM (inactive) | 54.7 | > 100 µM (inactive) | 91.2 µM (inactive) | > 100 µM (inactive) | 72.1 µM (inactive) | > 100 µM (inactive) | 84.1 µM (inactive) | 36.3 µM (inactive) | 52.8 µM (inactive) | > 100 µM (inactive) | 23.3 µM (inactive) | > 100 µM (inactive) | > 100 µM (inactive) | > 100 µM (inactive) | > 100 µM (inactive) |
| O=C1Nc2ccccc2/C1=N\c1cccc2ncccc12 | > 100 µM (inactive) | 81.5 µM (inactive) | > 100 µM (inactive) | > 100 µM (inactive) | > 100 µM (inactive) | 68.1 | 46.5 µM (inactive) | 39.1 µM (inactive) | 51.1 µM (inactive) | 27.4 µM (inactive) | > 100 µM (inactive) | 34.5 µM (inactive) | 28.1 µM (inactive) | 63.7 µM (inactive) | 63 µM (inactive) | 36.5 µM (inactive) | > 100 µM (inactive) | > 100 µM (inactive) | 67.5 µM (inactive) | > 100 µM (inactive) |
| C=C1C(=O)O[C@@H]2C[C@@H](C)[C@@H]3C=CC(=O)[C@@]3(C)[C@@H](OC(=O)CCCC(=O)O[C@H]3[C@@H]4C(=C)C(=O)O[C@@H]4C[C@@H](C)[C@@H]4C=CC(=O)[C@]43C)[C@H]12 | 0.181 µM (active) | 1.63 µM (inactive) | 0.0266 µM (active) | 0.0252 µM (active) | 0.0197 µM (active) | 0.0335 | 1.04 µM (active) | 0.104 µM (active) | 0.112 µM (active) | 0.0518 µM (active) | 0.0284 µM (active) | 0.0183 µM (active) | 0.0102 µM (active) | 0.0398 µM (active) | 0.139 µM (active) | 0.0107 µM (active) | 0.0762 µM (active) | 0.0144 µM (active) | 0.101 µM (active) | 0.135 µM (active) |
| CC(C)(C)OC(=O)NC1CC2(C=C(Br)C(=O)C(Br)=C2)OC1=O (stereo not given) | 23.3 µM (inactive) | 20.2 µM (inactive) | 4.23 µM (inactive) | 16.5 µM (inactive) | 3.59 µM (inactive) | 7.13 | 18.7 µM (inactive) | 22 µM (inactive) | 16.4 µM (inactive) | 13 µM (inactive) | 17.7 µM (inactive) | 5.74 µM (inactive) | 1.73 µM (inactive) | 10.4 µM (inactive) | 18.3 µM (inactive) | 0.968 µM (active) | 18.7 µM (inactive) | 2.01 µM (inactive) | 17.4 µM (inactive) | 5.27 µM (inactive) |
| O=C(O)/C=C/C=C/c1ccc2c(c1)OCO2 [PIPERIC ACID] | > 100 µM (inactive) | > 100 µM (inactive) | > 100 µM (inactive) | > 100 µM (inactive) | > 100 µM (inactive) | > 100 | > 100 µM (inactive) | 82.6 µM (inactive) | > 100 µM (inactive) | > 100 µM (inactive) | > 100 µM (inactive) | > 100 µM (inactive) | > 100 µM (inactive) | > 100 µM (inactive) | > 100 µM (inactive) | > 100 µM (inactive) | > 100 µM (inactive) | > 100 µM (inactive) | > 100 µM (inactive) | > 100 µM (inactive) |
| CC(=O)Oc1cc(S(=O)(=O)Nc2nc(N)n[nH]2)c(S)cc1Cl | > 100 µM (inactive) | > 100 µM (inactive) | > 100 µM (inactive) | > 100 µM (inactive) | > 100 µM (inactive) | > 100 | > 100 µM (inactive) | > 100 µM (inactive) | > 100 µM (inactive) | > 100 µM (inactive) | > 100 µM (inactive) | > 100 µM (inactive) | > 100 µM (inactive) | > 100 µM (inactive) | > 100 µM (inactive) | > 100 µM (inactive) | > 100 µM (inactive) | > 100 µM (inactive) | > 100 µM (inactive) | > 100 µM (inactive) |
| O=C1C=CC(=O)C(CNc2ccc(C(=O)OC34CC5CC(CC(C5)C3)C4)cc2)=C1Br | 17.9 µM (inactive) | 13.3 µM (inactive) | 14.6 µM (inactive) | 5.33 µM (inactive) | 7.29 µM (inactive) | 5.19 | 19 µM (inactive) | 6.35 µM (inactive) | 3.73 µM (inactive) | 9.48 µM (inactive) | 10.2 µM (inactive) | 15.6 µM (inactive) | 0.435 µM (active) | 13.5 µM (inactive) | 16.7 µM (inactive) | 5.6 µM (inactive) | 1.59 µM (inactive) | 18.2 µM (inactive) | 4 µM (inactive) | 6.75 µM (inactive) |
| N=C(N)N/N=C/c1c(-c2ccc([N+](=O)[O-])cc2)nc2n1CCS2 | 20.4 µM (inactive) | 17 µM (inactive) | 16.5 µM (inactive) | 17.1 µM (inactive) | 2.76 µM (inactive) | 18.5 | 20.5 µM (inactive) | 16.7 µM (inactive) | 17.4 µM (inactive) | 8.26 µM (inactive) | 6.18 µM (inactive) | 11.9 µM (inactive) | 10.6 µM (inactive) | 14.8 µM (inactive) | 14.4 µM (inactive) | 38 µM (inactive) | 16.3 µM (inactive) | 2.53 µM (inactive) | 2.3 µM (inactive) | 15.6 µM (inactive) |
| COC(=O)c1ccc(/N=N/N(C)COc2ccc(C#N)cc2)cc1 | > 100 µM (inactive) | 70 µM (inactive) | 21.2 µM (inactive) | > 100 µM (inactive) | 61.2 µM (inactive) | 22.4 | > 100 µM (inactive) | 59.4 µM (inactive) | > 100 µM (inactive) | 56.1 µM (inactive) | > 100 µM (inactive) | > 100 µM (inactive) | > 100 µM (inactive) | > 100 µM (inactive) | 61 µM (inactive) | > 100 µM (inactive) | > 100 µM (inactive) | 53.5 µM (inactive) | 98.6 µM (inactive) | 77.3 µM (inactive) |
| CC(=O)C1=C(N=[N+]=[N-])c2cccc3cccc(c23)C1=O | 28.8 µM (inactive) | 24.5 µM (inactive) | 16 µM (inactive) | 20.8 µM (inactive) | 15.7 µM (inactive) | 15.7 | 14.8 µM (inactive) | 29.3 µM (inactive) | 16.1 µM (inactive) | 14.7 µM (inactive) | 11.5 µM (inactive) | 18.9 µM (inactive) | 14.2 µM (inactive) | 12.2 µM (inactive) | 16.5 µM (inactive) | 18.5 µM (inactive) | 13.3 µM (inactive) | 18.3 µM (inactive) | 19.2 µM (inactive) | 14.6 µM (inactive) |
